In ChEMBL document CHEMBL5357034, “Antimicrobial and Anti-inflammatory Cyclic Tetrapeptides from the Co-cultures of Two Marine-Derived Fungi” (2024):
Square brackets hold non-standard residues; d marks the D form. Peptide text beside a SMILES is read from it. NMeA = CN[C@@H](C)C(=O)O

What was measured:
Type in all cases: functional
Bacillus subtilis = assay: Antimicrobial activity against Bacillus subtilis ATCC 6633 assessed as inhibition of microbial growth incubated for 24 hrs by broth microdilution method
Acinetobacter baumannii = assay: Antimicrobial activity against Acinetobacter baumannii 2799 assessed as inhibition of microbial growth incubated for 24 hrs by broth microdilution method
Edwardsiella tarda [1] = assay: Antimicrobial activity against Edwardsiella tarda ATCC15947 assessed as inhibition of microbial growth incubated for 24 hrs by broth microdilution method
Edwardsiella tarda [2] = assay: Antimicrobial activity against Edwardsiella tarda QDIO-2 assessed as inhibition of microbial growth incubated for 24 hrs by broth microdilution method
Staphylococcus aureus [3] = assay: Antimicrobial activity against methicillin-resistant Staphylococcus aureus ATCC R6101 assessed as inhibition of microbial growth incubated for 24 hrs by broth microdilution method
Escherichia coli = assay: Antimicrobial activity against Escherichia coli ATCC 25922 assessed as inhibition of microbial growth incubated for 24 hrs by broth microdilution method
Edwardsiella ictaluri = assay: Antimicrobial activity against Edwardsiella ictaluri ATCC33202 assessed as inhibition of microbial growth incubated for 24 hrs by broth microdilution method
Staphylococcus aureus [4] = assay: Antimicrobial activity against Staphylococcus aureus ATCC 29213 assessed as inhibition of microbial growth incubated for 24 hrs by broth microdilution method
Staphylococcus aureus [5] = assay: Antimicrobial activity against methicillin-resistant Staphylococcus aureus ATCC 33591 assessed as inhibition of microbial growth incubated for 24 hrs by broth microdilution method
Pseudomonas aeruginosa = assay: Antimicrobial activity against Pseudomonas aeruginosa ATCC 27853 assessed as inhibition of microbial growth incubated for 24 hrs by broth microdilution method
Candida albicans = assay: Antimicrobial activity against Candida albicans ATCC 10213 assessed as inhibition of microbial growth incubated for 24 hrs by broth microdilution method
RAW264.7 [6] = assay: Anti-inflammatory activity in LPS-induced mouse RAW264.7 cells assessed as inhibition of TNF-alpha production at 10 uM preincubated with compound for 24 hrs followed by compound replacement with DMEM media and measured 6 hrs after LPS stimulation by qRT-PCR analysis relative to control
RAW264.7 [7] = assay: Anti-inflammatory activity in LPS-induced mouse RAW264.7 cells assessed as inhibition of IL-6 production at 10 uM preincubated with compound for 24 hrs followed by compound replacement with DMEM media and measured 6 hrs after LPS stimulation by qRT-PCR analysis relative to control
RAW264.7 [8] = assay: Anti-inflammatory activity in LPS-induced mouse RAW264.7 cells assessed as inhibition of MCP-1 production at 10 uM preincubated with compound for 24 hrs followed by compound replacement with DMEM media and measured 6 hrs after LPS stimulation by qRT-PCR analysis relative to control

Question: How did the MIC (Bacillus subtilis) turn out when `CC(C)Cc1cnc(CC(C)C)c(=O)[nH]1` was run?
Answer: Its MIC is over 128 µg/mL.

Question: What about the MIC (Acinetobacter baumannii) of the same molecule?
Answer: The MIC was over 128 µg/mL.

Question: And the MIC (Edwardsiella tarda [1])?
Answer: The MIC was 128 µg/mL.

Question: What about the MIC (Edwardsiella tarda [2]) of the same molecule?
Answer: Its MIC is 128 µg/mL.

Question: And the MIC (Staphylococcus aureus [3])?
Answer: Its MIC is over 128 µg/mL.

Question: What about the MIC (Escherichia coli) of the same molecule?
Answer: Its MIC is over 128 µg/mL.

Question: What about the MIC (Edwardsiella ictaluri) of the same molecule?
Answer: Its MIC is 64 µg/mL.

Question: And the MIC (Staphylococcus aureus [4])?
Answer: Its MIC is over 128 µg/mL.

Question: What about the MIC (Staphylococcus aureus [5]) of the same molecule?
Answer: The MIC was over 128 µg/mL.

Question: And the MIC (Pseudomonas aeruginosa)?
Answer: The MIC was over 128 µg/mL.

Question: And the MIC (Candida albicans)?
Answer: Its MIC is over 128 µg/mL.

Question: Which results are given for `CC(C)Cc1ncc([C@@H](O)C(C)C)n(O)c1=O`?
Answer: MIC (Bacillus subtilis): 128 µg/mL; MIC (Acinetobacter baumannii): 128 µg/mL; MIC (Edwardsiella tarda [1]): 128 µg/mL; MIC (Edwardsiella tarda [2]): 128 µg/mL; MIC (Staphylococcus aureus [3]): > 128 µg/mL; MIC (Escherichia coli): > 128 µg/mL; MIC (Edwardsiella ictaluri): 64 µg/mL; MIC (Staphylococcus aureus [4]): 32 µg/mL; MIC (Staphylococcus aureus [5]): 16 µg/mL; MIC (Pseudomonas aeruginosa): > 128 µg/mL; MIC (Candida albicans): 32 µg/mL

Question: Which results are given for `CC[C@H](C)[C@@H]1NC(=O)[C@H](C)NC(=O)[C@H](Cc2ccc(OC)cc2)NC(=O)[C@H](C)N(C)C1=O` (cyclo(AI[NMeA]Y(Me)))?
Answer: inhibition at 10 µM (RAW264.7 [6]): 6.6%; inhibition at 10 µM (RAW264.7 [7]): 67%; inhibition at 10 µM (RAW264.7 [8]): 12%

Question: `CC[C@H](C)[C@@H]1NC(=O)[C@H]([C@@H](C)O)NC(=O)[C@H](Cc2ccccc2)NC(=O)[C@H](C)N(C)C1=O` (cyclo(FTI[NMeA])) was tested. Which MIC (Bacillus subtilis) did it give?
Answer: Its MIC is over 128 µg/mL.

Question: And the inhibition at 10 µM (RAW264.7 [6])?
Answer: The inhibition at 10 µM was 13%.

Question: And the MIC (Acinetobacter baumannii)?
Answer: Its MIC is over 128 µg/mL.

Question: And the MIC (Edwardsiella tarda [1])?
Answer: The MIC was over 128 µg/mL.

Question: What about the MIC (Edwardsiella tarda [2]) of the same molecule?
Answer: The MIC was 128 µg/mL.

Question: What about the MIC (Staphylococcus aureus [3]) of the same molecule?
Answer: Its MIC is over 128 µg/mL.

Question: And the inhibition at 10 µM (RAW264.7 [7])?
Answer: The inhibition at 10 µM was 61%.

Question: What about the MIC (Escherichia coli) of the same molecule?
Answer: The MIC was over 128 µg/mL.

Question: And the MIC (Edwardsiella ictaluri)?
Answer: Its MIC is 128 µg/mL.

Question: What about the MIC (Staphylococcus aureus [4]) of the same molecule?
Answer: Its MIC is over 128 µg/mL.

Question: What about the MIC (Staphylococcus aureus [5]) of the same molecule?
Answer: The MIC was over 128 µg/mL.

Question: What about the inhibition at 10 µM (RAW264.7 [8]) of the same molecule?
Answer: Its inhibition at 10 µM is 56%.

Question: And the MIC (Pseudomonas aeruginosa)?
Answer: Its MIC is over 128 µg/mL.

Question: What about the MIC (Candida albicans) of the same molecule?
Answer: Its MIC is over 128 µg/mL.

Question: Which results are given for `CC[C@H](C)[C@@H]1NC(=O)[C@H]([C@@H](C)O)NC(=O)[C@H](Cc2ccc(OC)cc2)NC(=O)[C@@H]2CCCN2C1=O` (cyclo(IPY(Me)T))?
Answer: MIC (Bacillus subtilis): > 128 µg/mL; inhibition at 10 µM (RAW264.7 [6]): 16%; MIC (Acinetobacter baumannii): > 128 µg/mL; MIC (Edwardsiella tarda [1]): > 128 µg/mL; MIC (Edwardsiella tarda [2]): > 128 µg/mL; MIC (Staphylococcus aureus [3]): > 128 µg/mL; inhibition at 10 µM (RAW264.7 [7]): 63%; MIC (Escherichia coli): > 128 µg/mL; MIC (Edwardsiella ictaluri): > 128 µg/mL; MIC (Staphylococcus aureus [4]): > 128 µg/mL; MIC (Staphylococcus aureus [5]): > 128 µg/mL; inhibition at 10 µM (RAW264.7 [8]): 42%; MIC (Pseudomonas aeruginosa): > 128 µg/mL; MIC (Candida albicans): > 128 µg/mL

Question: With `CC[C@H](C)[C@@H]1NC(=O)[C@H]([C@@H](C)O)NC(=O)[C@H](Cc2ccc(OC)cc2)NC(=O)[C@H](C)N(C)C1=O` (cyclo(I[NMeA]Y(Me)T)) as the molecule, how does the MIC (Bacillus subtilis) read?
Answer: The MIC was over 128 µg/mL.

Question: And the inhibition at 10 µM (RAW264.7 [6])?
Answer: The inhibition at 10 µM was 24%.

Question: What about the MIC (Acinetobacter baumannii) of the same molecule?
Answer: Its MIC is over 128 µg/mL.

Question: What about the MIC (Edwardsiella tarda [1]) of the same molecule?
Answer: The MIC was 128 µg/mL.

Question: And the MIC (Edwardsiella tarda [2])?
Answer: Its MIC is over 128 µg/mL.

Question: And the MIC (Staphylococcus aureus [3])?
Answer: Its MIC is over 128 µg/mL.

Question: And the inhibition at 10 µM (RAW264.7 [7])?
Answer: The inhibition at 10 µM was 55%.

Question: And the MIC (Escherichia coli)?
Answer: The MIC was over 128 µg/mL.

Question: What about the MIC (Edwardsiella ictaluri) of the same molecule?
Answer: Its MIC is 64 µg/mL.

Question: What about the MIC (Staphylococcus aureus [4]) of the same molecule?
Answer: The MIC was over 128 µg/mL.

Question: And the MIC (Staphylococcus aureus [5])?
Answer: The MIC was over 128 µg/mL.

Question: What about the inhibition at 10 µM (RAW264.7 [8]) of the same molecule?
Answer: Its inhibition at 10 µM is 44%.

Question: What about the MIC (Pseudomonas aeruginosa) of the same molecule?
Answer: Its MIC is over 128 µg/mL.

Question: And the MIC (Candida albicans)?
Answer: The MIC was over 128 µg/mL.

Question: Which MIC (Bacillus subtilis) does the source give for `COc1ccc(C[C@@H]2NC(=O)[C@H](C)N(C)C(=O)[C@H](CC(C)C)NC(=O)[C@H]([C@@H](C)O)NC2=O)cc1` (cyclo(L[NMeA]Y(Me)T)) here?
Answer: Its MIC is over 128 µg/mL.

Question: What about the inhibition at 10 µM (RAW264.7 [6]) of the same molecule?
Answer: The inhibition at 10 µM was 15%.

Question: What about the MIC (Acinetobacter baumannii) of the same molecule?
Answer: The MIC was over 128 µg/mL.

Question: And the MIC (Edwardsiella tarda [1])?
Answer: The MIC was 128 µg/mL.

Question: And the MIC (Edwardsiella tarda [2])?
Answer: Its MIC is over 128 µg/mL.

Question: What about the MIC (Staphylococcus aureus [3]) of the same molecule?
Answer: The MIC was over 128 µg/mL.

Question: And the inhibition at 10 µM (RAW264.7 [7])?
Answer: The inhibition at 10 µM was 55%.

Question: What about the MIC (Escherichia coli) of the same molecule?
Answer: The MIC was over 128 µg/mL.

Question: What about the MIC (Edwardsiella ictaluri) of the same molecule?
Answer: Its MIC is over 128 µg/mL.

Question: What about the MIC (Staphylococcus aureus [4]) of the same molecule?
Answer: The MIC was over 128 µg/mL.

Question: And the MIC (Staphylococcus aureus [5])?
Answer: Its MIC is over 128 µg/mL.

Question: What about the inhibition at 10 µM (RAW264.7 [8]) of the same molecule?
Answer: Its inhibition at 10 µM is 41%.

Question: And the MIC (Pseudomonas aeruginosa)?
Answer: Its MIC is over 128 µg/mL.

Question: What about the MIC (Candida albicans) of the same molecule?
Answer: The MIC was over 128 µg/mL.

Question: How did the MIC (Bacillus subtilis) turn out when `CO[C@H]1/C=C/O[C@@]2(C)Oc3c(C)c(O)c4c(O)c(c(/C=N/N5CCN(C)CC5)c(O)c4c3C2=O)NC(=O)/C(C)=C\C=C\[C@H](C)[C@H](O)[C@@H](C)[C@@H](O)[C@@H](C)[C@H](OC(C)=O)[C@@H]1C` [RIFAMPIN] was run?
Answer: The MIC was under 0.25 µg/mL.

Question: And the MIC (Acinetobacter baumannii)?
Answer: Its MIC is 1 µg/mL.

Question: And the MIC (Edwardsiella tarda [1])?
Answer: The MIC was 2 µg/mL.

Question: What about the MIC (Edwardsiella tarda [2]) of the same molecule?
Answer: The MIC was 4 µg/mL.

Question: And the MIC (Staphylococcus aureus [3])?
Answer: The MIC was 8 µg/mL.

Question: And the MIC (Escherichia coli)?
Answer: The MIC was 4 µg/mL.

Question: And the MIC (Edwardsiella ictaluri)?
Answer: Its MIC is 8 µg/mL.

Question: And the MIC (Staphylococcus aureus [4])?
Answer: Its MIC is under 0.25 µg/mL.

Question: What about the MIC (Staphylococcus aureus [5]) of the same molecule?
Answer: The MIC was under 0.25 µg/mL.

Question: What about the MIC (Pseudomonas aeruginosa) of the same molecule?
Answer: The MIC was 8 µg/mL.

Question: What about the MIC (Candida albicans) of the same molecule?
Answer: The MIC was under 0.25 µg/mL.

Question: How did the MIC (Bacillus subtilis) turn out when `CN[C@H](CC(C)C)C(=O)N[C@H]1C(=O)N[C@@H](CC(N)=O)C(=O)N[C@H]2C(=O)N[C@H]3C(=O)N[C@H](C(=O)N[C@H](C(=O)O)c4cc(O)cc(O)c4-c4cc3ccc4O)[C@H](O)c3ccc(c(Cl)c3)Oc3cc2cc(c3O[C@@H]2O[C@H](CO)[C@@H](O)[C@H](O)[C@H]2O[C@H]2C[C@](C)(N)[C@H](O)[C@H](C)O2)Oc2ccc(cc2Cl)[C@H]1O` [VANCOMYCIN] was run?
Answer: The MIC was under 0.25 µg/mL.

Question: What about the MIC (Acinetobacter baumannii) of the same molecule?
Answer: Its MIC is 64 µg/mL.

Question: And the MIC (Edwardsiella tarda [1])?
Answer: Its MIC is over 128 µg/mL.

Question: What about the MIC (Edwardsiella tarda [2]) of the same molecule?
Answer: The MIC was over 128 µg/mL.

Question: And the MIC (Staphylococcus aureus [3])?
Answer: Its MIC is over 128 µg/mL.

Question: And the MIC (Escherichia coli)?
Answer: Its MIC is 128 µg/mL.

Question: What about the MIC (Edwardsiella ictaluri) of the same molecule?
Answer: Its MIC is over 128 µg/mL.

Question: What about the MIC (Pseudomonas aeruginosa) of the same molecule?
Answer: The MIC was over 128 µg/mL.

Question: What about the MIC (Candida albicans) of the same molecule?
Answer: The MIC was under 0.25 µg/mL.
